Source: patent US10829473B2, “Modulators of the cystic fibrosis transmembrane conductance regulator protein and methods of use” (AbbVie Overseas S.Á.R.L., priority 2017, dated 2020)
Where two headings read alike, the source gives them in different places. Marks after values point to notes of the source that are not given here.

Target: T1, F508delCFTR (Homo sapiens, UniProt P13569, DEL508-508)
T1 construct: expressed in transfected cells; host or cells: CFBE41o- human lung derived epithelial cells (CFBE41o-F508delCFTR-HRP), doxycycline-inducible
Assay: Cell Surface Expression-Horse Radish Peroxidase (CSE-HRP) Assay;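 as to EC50 (with co-corrector): co-corrector chromenyl benzoic acid corrector at 2 or 3 µM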;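 as to Maximum % activity (without co-corrector): % of on-plate positive control chromenyl benzoic acid corrector at 2 or 3 µM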
Type: cell-based
Details: for Maximum % activity (with co-corrector) / Emax: maximum at any tested concentration; for Emax: read-out: Maximum % activity (without co-corrector)
Summary of the method: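 Corrector compounds were given as 8-point 3-fold series from 20 or 30 μM, with or without a 2 μM co-corrector, for 18-24 h at 33 °C. Surface HRP was read by luminol luminescence as % of positive control; variable-Hill-slope sigmoidal fitting gave EC50 from triplicate plates.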

[1] = test compound with co-corrector
[2] = test compound without co-corrector
[3] = test compound alone, without co-corrector, read-out: EC50 (without co-corrector)
[4] = with co-corrector, read-out: EC50 (with co-corrector)
[5] = test compound with co-corrector, read-out: EC50 (with co-corrector)
[6] = test compound without co-corrector, read-out: EC50 (without co-corrector)

T1 sequence (P13569 with tags, fused parts or gaps DEL508-508): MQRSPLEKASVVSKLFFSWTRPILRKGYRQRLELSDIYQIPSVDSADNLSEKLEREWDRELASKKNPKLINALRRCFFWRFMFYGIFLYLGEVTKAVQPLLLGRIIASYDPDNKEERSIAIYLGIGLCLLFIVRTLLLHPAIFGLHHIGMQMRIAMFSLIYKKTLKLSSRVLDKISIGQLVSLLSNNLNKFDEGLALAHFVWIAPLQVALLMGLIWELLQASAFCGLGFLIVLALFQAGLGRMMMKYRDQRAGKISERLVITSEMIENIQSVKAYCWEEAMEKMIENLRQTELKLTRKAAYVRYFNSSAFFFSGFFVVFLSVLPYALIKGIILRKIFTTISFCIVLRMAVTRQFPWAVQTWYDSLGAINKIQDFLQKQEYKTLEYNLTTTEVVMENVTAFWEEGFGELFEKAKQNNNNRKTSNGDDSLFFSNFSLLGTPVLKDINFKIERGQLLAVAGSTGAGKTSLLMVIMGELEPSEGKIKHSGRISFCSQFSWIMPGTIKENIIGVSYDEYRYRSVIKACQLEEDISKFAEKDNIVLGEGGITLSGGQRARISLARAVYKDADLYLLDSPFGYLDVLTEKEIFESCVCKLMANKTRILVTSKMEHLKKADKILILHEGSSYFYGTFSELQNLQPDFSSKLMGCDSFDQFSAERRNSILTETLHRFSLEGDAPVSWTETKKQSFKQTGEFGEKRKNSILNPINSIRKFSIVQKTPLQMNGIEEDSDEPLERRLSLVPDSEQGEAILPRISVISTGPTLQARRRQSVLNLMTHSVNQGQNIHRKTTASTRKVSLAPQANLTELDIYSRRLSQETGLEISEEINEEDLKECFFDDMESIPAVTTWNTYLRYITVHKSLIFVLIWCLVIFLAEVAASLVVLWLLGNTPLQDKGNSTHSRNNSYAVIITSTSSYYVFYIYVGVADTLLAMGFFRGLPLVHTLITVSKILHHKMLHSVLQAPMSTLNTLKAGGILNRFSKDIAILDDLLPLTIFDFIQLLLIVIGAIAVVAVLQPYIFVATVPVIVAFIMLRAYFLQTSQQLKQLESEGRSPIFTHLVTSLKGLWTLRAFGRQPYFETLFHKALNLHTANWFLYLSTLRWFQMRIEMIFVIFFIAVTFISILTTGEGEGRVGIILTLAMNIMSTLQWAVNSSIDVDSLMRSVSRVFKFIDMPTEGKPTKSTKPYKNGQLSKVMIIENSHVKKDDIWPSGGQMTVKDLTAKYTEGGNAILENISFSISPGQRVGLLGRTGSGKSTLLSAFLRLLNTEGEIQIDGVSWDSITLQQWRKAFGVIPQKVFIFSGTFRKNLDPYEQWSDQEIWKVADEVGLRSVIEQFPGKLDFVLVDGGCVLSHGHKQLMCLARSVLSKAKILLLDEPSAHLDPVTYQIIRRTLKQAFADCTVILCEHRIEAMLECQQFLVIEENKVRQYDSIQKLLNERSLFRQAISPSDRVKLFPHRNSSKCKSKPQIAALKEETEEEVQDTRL

EC50 (with co-corrector) [1]	Maximum % activity (with co-corrector) [1]	EC50 (without co-corrector) [2]	Emax [2] [%]	EC50 [3] [µM]	Maximum % activity (with co-corrector) (with co-corrector)	EC50 [4] [µM]	Emax (without co-corrector) [%]	EC50 [5] [µM]	EC50 [6] [µM]	Structure (SMILES)
++^a	++ (≥150 and <350)	++^a	50 to 150							CCc1cnc(N2CCOCC2)c(C2(C(=O)NS(=O)(=O)c3cccc4nc(C)ccc34)CC2)c1 [GII-32, 1-[5-ethyl-2-(morpholin-4-yl)pyridin-3-yl]-N-(2-methylquinoline-5-sulfonyl)cyclopropane-1-carboxamide]
				< 3	+++ (≥350)	< 3	> 150			Cc1ccc(OC(C)C)c(C2(C(=O)NS(=O)(=O)c3cccc4ncccc34)CC2)c1 [Example I-77, 1-{5-methyl-2-[(propan-2-yl)oxy]phenyl}-N-(quinoline-5-sulfonyl)cyclopropane-1-carboxamide]
				< 3	+++ (≥350)	< 3	> 150			COc1ncc(C2CCC2)cc1C1(C(=O)NS(=O)(=O)c2cccc3cnn(C)c23)CC1 [II-13]
	+++ (≥350)		> 150					< 3	3 to 10	CCc1cnc(OCCOC)c(C2(C(=O)NS(=O)(=O)c3cccc4[nH]ccc34)CC2)c1 [Example GI-109, 1-[5-ethyl-2-(2-methoxyethoxy)pyridin-3-yl]-N-(1H-indole-4-sulfonyl)cyclopropane-1-carboxamide]
				> 10	++ (≥150 and <350)	3 to 10	< 50			O=C(NS(=O)(=O)c1ccccc1)C1(c2ccccc2F)CC1 [Example III-30, N-(benzenesulfonyl)-1-(2-fluorophenyl)cyclopropane-1-carboxamide]
++^a	++ (≥150 and <350)	++^a	50 to 150							O=C(NS(=O)(=O)c1cccc2ncccc12)C1(c2cccnc2N2CCCC2)CC1 [GII-33, 1-[2-(pyrrolidin-1-yl)pyridin-3-yl]-N-(quinoline-5-sulfonyl)cyclopropane-1-carboxamide]
				< 3	+++ (≥350)	< 3	> 150			CO[C@@H](C)COc1ccc(C)cc1C1(C(=O)NS(=O)(=O)c2cccc3nc(C)ccc23)CC1 [Example I-114, 1-{2-[(2S)-2-methoxypropoxy]-5-methylphenyl}-N-(2-methylquinoline-5-sulfonyl)cyclopropane-1-carboxamide]
	+++ (≥350)		> 150					< 3	< 3	Cc1cnc(OC(C)C)c(C2(C(=O)NS(=O)(=O)c3cccc4nc(C)ccc34)CC2)c1 [Example GI-58, 1-{5-methyl-2-[(propan-2-yl)oxy]pyridin-3-yl}-N-(2-methylquinoline-5-sulfonyl)cyclopropane-1-carboxamide]
	+++ (≥350)		> 150					< 3	< 3	COCCOc1ncc(C2CCC2)cc1C1(C(=O)NS(=O)(=O)c2cccc3nc(C)ccc23)CC1 [Example GI-94, 1-[5-cyclobutyl-2-(2-methoxyethoxy)pyridin-3-yl]-N-(2-methylquinoline-5-sulfonyl)cyclopropane-1-carboxamide]
				3 to 10	+++ (≥350)	< 3	> 150			COc1ncc(C2CCC2)c(C)c1C1(C(=O)NS(=O)(=O)c2cccc3c2CCCN3)CC1 [II-38]
				3 to 10	+++ (≥350)	< 3	> 150			COc1nc2ccccc2cc1C1(C(=O)NS(=O)(=O)c2cccc3nc(C)ccc23)CC1 [Example I-75, 1-(2-methoxyquinolin-3-yl)-N-(2-methylquinoline-5-sulfonyl)cyclopropane-1-carboxamide]
				< 3	+++ (≥350)	< 3	> 150			CN(C)c1ncc(C(F)(F)F)cc1C1(C(=O)NS(=O)(=O)c2cccc3ccccc23)CC1 [Example I-30, 1-[2-(dimethylamino)-5-(trifluoromethyl)pyridin-3-yl]-N-(naphthalene-1-sulfonyl)cyclopropane-1-carboxamide]
	+++ (≥350)		> 150					< 3	3 to 10	CCc1cnc(OCCOC)c(C2(C(=O)NS(=O)(=O)c3cccc4ncccc34)CC2)c1 [Example GI-112, 1-[5-ethyl-2-(2-methoxyethoxy)pyridin-3-yl]-N-(quinoline-5-sulfonyl)cyclopropane-1-carboxamide]
				> 10	+ (<150)	3 to 10	< 50			O=C(NS(=O)(=O)c1cccnc1)C1(c2ccc(Cl)cc2Cl)CC1 [Example III-59, 1-(2,4-dichlorophenyl)-N-(pyridine-3-sulfonyl)cyclopropane-1-carboxamide]
	+++ (≥350)		50 to 150					3 to 10	3 to 10	Cc1cnc(N(C)C)c(C2(C(=O)NS(=O)(=O)c3cccc4ncccc34)CC2)c1 [GII-41, 1-[2-(dimethylamino)-5-methylpyridin-3-yl]-N-(quinoline-5-sulfonyl)cyclopropane-1-carboxamide]
	+++ (≥350)		> 150					< 3	< 3	CC(C)COc1ncc(C2CC2)cc1C1(C(=O)NS(=O)(=O)c2cccc3[nH]ccc23)CC1 [Example GI-50, 1-[5-cyclopropyl-2-(2-methylpropoxy)pyridin-3-yl]-N-(1H-indole-4-sulfonyl)cyclopropane-1-carboxamide]
	+++ (≥350)		> 150					3 to 10	3 to 10	O=C(NS(=O)(=O)c1cccc2c1CCCN2)C1(c2cc(C3CC3)cnc2N2CCCC2)CC1 [GII-29, 1-[5-cyclopropyl-2-(pyrrolidin-1-yl)pyridin-3-yl]-N-(1,2,3,4-tetrahydroquinoline-5-sulfonyl)cyclopropane-1-carboxamide]
				< 3	+++ (≥350)	< 3	> 150			CCc1ccc(O[C@H](C)COC)c(C2(C(=O)NS(=O)(=O)c3cccc4nc(C)ccc34)CC2)c1 [Example I-112, 1-(5-ethyl-2-{[(2R)-1-methoxypropan-2-yl]oxy}phenyl)-N-(2-methylquinoline-5-sulfonyl)cyclopropane-1-carboxamide]
				< 3	+++ (≥350)	< 3	> 150			CCc1cccc(OC)c1C1(C(=O)NS(=O)(=O)c2cccc3nc(C)ccc23)CC1 [Example III-133, 1-(2-ethyl-6-methoxyphenyl)-N-(2-methylquinoline-5-sulfonyl)cyclopropane-1-carboxamide]
				< 3	+++ (≥350)	< 3	> 150			O=C(NS(=O)(=O)c1cccc2c1CCCN2)C1(c2ccc(C(F)(F)F)nc2C2CCC2)CC1 [Example GI-10, 1-[2-cyclobutyl-6-(trifluoromethyl)pyridin-3-yl]-N-(1,2,3,4-tetrahydroquinoline-5-sulfonyl)cyclopropane-1-carboxamide]
